Measurements taken from patent US8158352B2, “Screening of a novel hepatic syndrome and its uses” (Assistance Publique-Hopitaux de Paris, priority 2000, dated 2012).

Tested on: hepatic bile of patients with intrahepatic cholestasis, cholesterol microcholelithiasis and MDR3 gene abnormality
Assay: Bile lipid composition of the hepatic bile from patients receiving treatment with UDCA
Format: in vivo, human
Details: for Cholesterol saturation index (CSI): calculated from Carey's critical tables
Procedure: The concentration of total bile salts is measured by an enzymatic technique using 3α-hydroxysteroid dehydrogenase (Enzabile, Nycomed, Oslo, Norway). The content of total phospholipids is determined by an enzymatic method in the presence of phospholipase D and choline oxidase. The cholesterol is determined by an enzymatic reaction with cholesterol oxidase or cholesterol esterase. The cholesterol saturation indices for the hepatic bile samples are calculated from Carey's critical tables (J. Lipid Res., 1978, 19, 945-955).
The bile lipid composition of the hepatic bile was studied using samples obtained by radioscopy of the duodenum (patients 2 and 3) or using a T tube (patients 5 and 6). The results obtained in the untreated patients or the patients receiving treatment with UDCA are given respectively in Tables V and VI below.

[1] = Case 5, receiving treatment with UDCA
[2] = Case 6, receiving treatment with UDCA

## C[C@H](CCC(=O)O)[C@H]1CC[C@H]2[C@@H]3[C@@H](O)C[C@@H]4C[C@H](O)CC[C@]4(C)[C@H]3CC[C@]12C [UDCA, ursodeoxycholic acid]
[1]
  Bile lipid classes: Bile salts (BS): 47.5 mol %
  Bile lipid classes: Cholesterol (CH): 16.8 mol %
  Bile lipid classes: Phospholipids (PL): 35.7 mol %
  Concentration of bile PL: 7.77
  Lipid ratios: CH/BS: 0.35
  Lipid ratios: CH/PL: 0.47
  Lipid ratios: PL/BS: 0.75
  Cholesterol saturation index (CSI): 4.0
[2]
  Bile lipid classes: Bile salts (BS): 72 mol %
  Bile lipid classes: Cholesterol (CH): 8.2 mol %
  Bile lipid classes: Phospholipids (PL): 19.7 mol %
  Concentration of bile PL: 6.03
  Lipid ratios: CH/BS: 0.11
  Lipid ratios: CH/PL: 0.42
  Lipid ratios: PL/BS: 0.27
  Cholesterol saturation index (CSI): 1.8
